Experiment [1] deals with T1, PRK (Thermosynechococcus vestitus, UniProt Q8DHN2).
T1 sequence (Q8DHN2 1-334): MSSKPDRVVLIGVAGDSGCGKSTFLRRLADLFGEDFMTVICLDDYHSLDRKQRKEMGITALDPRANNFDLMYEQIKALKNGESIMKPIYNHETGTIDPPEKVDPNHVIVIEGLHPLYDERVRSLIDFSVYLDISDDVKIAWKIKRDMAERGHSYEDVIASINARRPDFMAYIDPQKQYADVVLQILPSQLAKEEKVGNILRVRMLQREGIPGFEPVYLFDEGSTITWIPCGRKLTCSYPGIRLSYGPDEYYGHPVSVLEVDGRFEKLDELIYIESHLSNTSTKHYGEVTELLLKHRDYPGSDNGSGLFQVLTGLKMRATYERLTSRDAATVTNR
Nature of the experiment: ADP production, coupled assay with ADP-hexokinase. Type of experiment: biochemical. Conditions: ternary complex reduced with DTT.

The target of experiment [2] is T2, GAPDH (Thermosynechococcus vestitus, UniProt Q8DIW5).
T2 sequence (Q8DIW5 1-337): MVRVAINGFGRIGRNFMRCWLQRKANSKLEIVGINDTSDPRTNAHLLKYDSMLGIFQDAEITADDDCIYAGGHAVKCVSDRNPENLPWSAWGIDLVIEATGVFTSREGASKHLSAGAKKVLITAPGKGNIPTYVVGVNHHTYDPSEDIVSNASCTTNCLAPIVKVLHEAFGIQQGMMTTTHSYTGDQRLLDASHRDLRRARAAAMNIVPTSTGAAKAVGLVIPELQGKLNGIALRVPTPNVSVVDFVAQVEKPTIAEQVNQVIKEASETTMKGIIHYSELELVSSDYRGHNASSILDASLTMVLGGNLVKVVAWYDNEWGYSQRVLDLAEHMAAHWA
Description: X-ray crystal structure. It is filed as binding.

The target in experiment [3] is T3, GAPDH-CP12 (Thermosynechococcus vestitus, UniProt Q8DIW5).
T3 sequence (Q8DIW5 1-337): T2 sequence (Q8DIW5 1-337)
T3 sequence (Q8DHX3 1-75 partner): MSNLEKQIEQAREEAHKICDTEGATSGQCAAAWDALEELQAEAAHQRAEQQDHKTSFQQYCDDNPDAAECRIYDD
Description: X-ray crystal structure. Type of experiment: binding. Conditions: proximal (CP12-occupied) and distal sites.

As to `O=C(CO)[C@H](O)[C@H](O)COP(=O)(O)O` [ribulose 5-phosphate], the “ADP production, coupled assay with ADP-hexokinase” value in experiment [1] (co-substrate ATP) was “measuring ADP production from ATP and ribulose 5-phosphate (Ru5P)”.

Regarding `Nc1ncnc2c1ncn2[C@@H]1O[C@H](COP(=O)(O)OP(=O)(O)OP(=O)(O)O)[C@@H](O)[C@H]1O` [ATP], in experiment [1] (co-substrate ribulose 5-phosphate), the “ADP production, coupled assay with ADP-hexokinase” value is “measuring ADP production from ATP and ribulose 5-phosphate (Ru5P)”.

`NC(=O)c1ccc[n+]([C@@H]2O[C@H](COP(=O)(O)OP(=O)(O)OC[C@H]3O[C@@H](n4cnc5c(N)ncnc54)[C@H](O)[C@@H]3O)[C@@H](O)[C@H]2O)c1` [NAD^+]: the X-ray crystal structure entry in experiment [2] (NAD+ bound from E. coli expression) was “GAPDH-NAD^+, GAPDH-NADP^+”; in experiment [3] it was “The CP12-bound (proximal) site makes extensive contacts with both NAD^+ and GAPDH”.

With `NC(=O)c1ccc[n+]([C@@H]2O[C@H](COP(=O)(O)OP(=O)(O)OC[C@H]3O[C@@H](n4cnc5c(N)ncnc54)[C@H](OP(=O)(O)O)[C@@H]3O)[C@@H](O)[C@H]2O)c1` [NADP^+], the X-ray crystal structure result in experiment [2] (NAD+ exchanged for NADP+ by turnover) is “this could be exchanged for NADP^+ by turning over the enzyme”.
